In US3995062A, “Halocyclopropyl halomethyl ethers” (priority 1975, dated 1976):

Tested on: Mice
Assay: Standard test for evaluation of inhalation anesthetics (mice in rotating drum; AC50, LC50, anesthetic index)
Type: in vivo
Settings: 10 minutes exposure; for Anesthetic index AI (LC50/AC50): calculated from LC50 and AC50; for AC50 (minimum concentration required to anesthetize 50% of the mice) / LC50 (minimum concentration required to kill 50% of the mice): when two figures are given, the actual parameter lies between them
Protocol: Mice were exposed to the anesthetic for a period of 10 minutes in a rotating drum. Observations were then made of the pinch reflex, the corneal reflex and the return of the righting reflex. At least four graded doses were employed to determine the minimum concentration required to anesthetize 50% of the mice used (AC50) and the minimum concentration required to kill 50% of the mice (LC50). The anesthetic index (AI) was then calculated from these minimum concentrations.

FC(F)OC1(F)C(F)(F)C1(F)Cl (stereo not drawn) [Example 7, 1-chloro-2-difluoromethoxy-1,2,3,3-tetrafluorocyclopropane]
Anesthetic index AI (LC50/AC50): > 1
AC50 (minimum concentration required to anesthetize 50% of the mice): 2-10 % volume
LC50 (minimum concentration required to kill 50% of the mice): > 10 % volume

FC(Cl)OC1(F)C(F)(F)C1(F)Cl (stereo not drawn) [Example 8, 1-chloro-2-chlorofluoromethoxy-1,2,3,3-tetrafluorocyclopropane]
Anesthetic index AI (LC50/AC50): 4-5
AC50 (minimum concentration required to anesthetize 50% of the mice): 2 % volume
LC50 (minimum concentration required to kill 50% of the mice): 8-10 % volume

FC(F)OC1(F)C(F)(F)C1(F)Br (stereo not drawn) [Example 9, 1-bromo-2-difluoromethoxy-1,2,3,3-tetrafluorocyclopropane]
Anesthetic index AI (LC50/AC50): > 4
AC50 (minimum concentration required to anesthetize 50% of the mice): 1 % volume
LC50 (minimum concentration required to kill 50% of the mice): > 4 % volume

FC(Cl)OC1(F)C(F)(F)C1(F)Br (stereo not drawn) [Example 10, 1-bromo-2-chlorofluoromethoxy-1,2,3,3-tetrafluorocyclopropane]
Anesthetic index AI (LC50/AC50): ~ 2
AC50 (minimum concentration required to anesthetize 50% of the mice): 2-4 % volume
LC50 (minimum concentration required to kill 50% of the mice): 6-8 % volume
